Data from patent US20120171274A1, “TRANSDERMAL PATCH” (priority 2006, published 2012).

Legend:
Assay type in all cases: physicochemical
[1] = Solvency of the active substance in monomer (visual inspection); parameters: key: Excellent: The active substance was not found to have been precipitated in the solution of active substance both immediately after the preparation and after the preservation for 7 days.; Good: The active substance was found to have been precipitated in the solution of active substance immediately after the preparation, but the active substance was not found to have been precipitated in the solution of active substance after the preservation for 7 days.; Poor: The active substance was found to have been precipitated in the solution of active substance both immediately after the preparation and after the preservation for 7 days; settings: 3 parts active substance per 100 parts monomer, 25° C., 7 days
[2] = Residual rate of the active substance in monomer solution (HPLC); settings: for Residual Rate of active substance, Immediately after Preparation: 3 parts per 100 parts monomer; for Residual Rate of active substance, after 7 Days: preserved at 25° C. for 7 days
[3] = Solubility of DMAE at 25° C. (HPLC); settings: g per 100 g of solvent
[4] = Solvency of DMAE in fatty acid ester or additive; settings: 50 parts DMAE in 950 parts, 25° C.
Method: When a crystal of DMAE was precipitated […], and when a crystal of DMAE was not precipitated, the solvency was evaluated to be “poor”.

[5] = monomer: 2-Ethylhexyl Methacrylate

Compound: COc1ccc(OC)c(C(O)CN)c1 (stereo not shown) [DMAE, 2-amino-1-(2′,5′-dimethoxyphenyl)ethanol]
- Solvency of active substance ([1]; monomer: 1-Vinyl-2-Pyrrolidone): Poor
- Solvency of active substance ([1]; monomer: 2-Ethylhexyl Acrylate): Poor
- Solvency of active substance [1, 5]: Poor
- Solvency of active substance ([1]; monomer: Acrylic Acid): Excellent
- Solvency of active substance ([1]; monomer: Butyl Acrylate): Good
- Solvency of active substance ([1]; monomer: Butyl Methacrylate): Poor
- Solvency of active substance ([1]; monomer: Dodecyl Methacrylate): Poor
- Solvency of active substance ([1]; monomer: Ethyl Acrylate): Excellent
- Residual Rate of active substance, Immediately after Preparation ([2]; monomer: 1-Vinyl-2-Pyrrolidone): 100 % by weight
- Residual Rate of active substance, after 7 Days ([2]; monomer: 1-Vinyl-2-Pyrrolidone): 100 % by weight
- Residual Rate of active substance, Immediately after Preparation ([2]; monomer: 2-Ethylhexyl Acrylate): 39 % by weight
- Residual Rate of active substance, after 7 Days ([2]; monomer: 2-Ethylhexyl Acrylate): 11 % by weight
- Residual Rate of active substance, Immediately after Preparation [2, 5]: 99 % by weight
- Residual Rate of active substance, after 7 Days [2, 5]: 99 % by weight
- Residual Rate of active substance, Immediately after Preparation ([2]; monomer: Acrylic Acid): 99 % by weight
- Residual Rate of active substance, after 7 Days ([2]; monomer: Acrylic Acid): 97 % by weight
- Residual Rate of active substance, Immediately after Preparation ([2]; monomer: Butyl Acrylate): 27 % by weight
- Residual Rate of active substance, Immediately after Preparation ([2]; monomer: Butyl Methacrylate): 98 % by weight
- Residual Rate of active substance, after 7 Days ([2]; monomer: Butyl Methacrylate): 98 % by weight
- Residual Rate of active substance, Immediately after Preparation ([2]; monomer: Dodecyl Methacrylate): 100 % by weight
- Residual Rate of active substance, after 7 Days ([2]; monomer: Dodecyl Methacrylate): 99 % by weight
- Solubility of DMAE ([3]; in Diethyl Sebacate): 0.9 g
- Solubility of DMAE ([3]; in Hexyl Laurate): 0.2 g
- Solubility of DMAE ([3]; in Isopropyl Myristate): 0.2 g
- Solubility of DMAE ([3]; in Isopropyl Palmitate): 0.2 g
- Solubility of DMAE ([3]; in Liquid Paraffin): 0.02 g
- Solubility of DMAE ([3]; in Medium-chain Triglyceride): 0.3 g
- Solubility of DMAE ([3]; in Octyldodecyl Myristate): 0.05 g
- Solubility of DMAE ([3]; in Oleic Acid): 3.7 g
- Solubility of DMAE ([3]; in Oleyl Alcohol): 2.5 g
- Solubility of DMAE ([3]; in Polyoxyethylene (2) Lauryl Ether): 3.7 g
- Solubility of DMAE ([3]; in Squalane): 0.01 g
- Solvency of DMAE ([4]; solvent Butylene Glycol): Poor
- Solvency of DMAE ([4]; solvent Diethyl Sebacate): Excellent
- Solvency of DMAE ([4]; solvent Hexyl Laurate): Excellent
- Solvency of DMAE ([4]; solvent Isopropyl Myristate): Excellent
- Solvency of DMAE ([4]; solvent Isopropyl Palmitate): Excellent
- Solvency of DMAE ([4]; solvent Isostearic Acid): Poor
- Solvency of DMAE ([4]; solvent Liquid Paraffin): Excellent
- Solvency of DMAE ([4]; solvent Medium-chain Triglyceride): Excellent
- Solvency of DMAE ([4]; solvent Monoethanolamine): Poor
- Solvency of DMAE ([4]; solvent Octanediol): Poor
- Solvency of DMAE ([4]; solvent Octyldodecyl Myristate): Excellent
- Solvency of DMAE ([4]; solvent Oleic Acid): Excellent
- Solvency of DMAE ([4]; solvent Oleyl Alcohol): Excellent
- Solvency of DMAE ([4]; solvent Polyoxyethylene (2) Lauryl Ether): Excellent
- Solvency of DMAE ([4]; solvent Propylene Glycol): Poor
- Solvency of DMAE ([4]; solvent Squalane): Excellent
- Solvency of DMAE ([4]; solvent Triacetin): Poor
